Literature values in paper PMC4734747 (Journal of nuclear medicine : official publication, Society …, 2013).

Legend:
P-gp at the human BBB [1] = conditions: brain, humans, no P-gp inhibition
P-gp at the BBB = conditions: brain, macaques, no P-gp inhibition
P-gp at the human BBB [2] = conditions: tariquidar 6 mg/kg; not necessarily the maximal increase
P-gp = conditions: rodents; ref 19 (Verbeek et al.)

For `CNC(=O)C(CCN1CCC(O)(c2ccc(Cl)cc2)CC1)(c1ccccc1)c1ccccc1` [dLOP, N-desmethyl-loperamide], the “mean baseline K1” value (P-gp at the human BBB [1]) is given as 0.015 mL/min/g, the “mean baseline K1” value (P-gp at the BBB) is given as 0.04 mL/min/g and the “increase in the brain distribution (reported by K1) after P-gp inhibition” value (P-gp at the human BBB [2]) is given as 4 fold.

In the case of `CNCCCC(C#N)(c1ccc(OC)c(OC)c1)C(C)C` (stereo not shown) [D617], the “affinity to P-gp relative to verapamil” value (P-gp) is given as “lower affinity to P-gp than does verapamil”.
